Source: patent publication US20250277012A1 (Protagonist Therapeutics, Inc., priority 2021, published 2025)
Like-named read-outs stand apart in the source and are kept apart here. Starred links: 1 amine or outer side, 2 acyl side, 3 side chain; linkers in the order of their positions; H or OH if unused. Positions of bridges follow the written chain, without caps; N, C: chain ends. Non-standard residues stand in square brackets, D forms with d. Residues, ends and D or L forms follow the SMILES beside them. Groups on a side chain read outwards from the residue. *: point of attachment. C18 diacid = O=C(O)CCCCCCCCCCCCCCCCC(=O)*; Dip = N[C@H](C(=O)O)C(c1ccccc1)c1ccccc1; Phenylacetyl(4-F) = O=C(Cc1ccc(F)cc1)*; γGlu = O=C(O)[C@H](CCC(=O)[*:2])N[*:1]; Palmitoyl = CCCCCCCCCCCCCCCC(=O)*; β3hF = N[C@H](CC(=O)O)Cc1ccccc1; X3 = CCCCCCCCCCCCCCCC(=O)NCCC*; NMeK = CN[C@@H](CCCCN)C(=O)O; Isovaleryl = CC(C)CC(=O)*; NMeS = CN[C@@H](CO)C(=O)O; hCys = N[C@@H](CCS)C(=O)O; Dap = NC[C@H](N)C(=O)O; AEEA = NCCOCCOCC(=O)O; Inp = O=C(O)C1CCNCC1; Ahx = NCCCCCC(=O)O

How the values were obtained:
[1] = molecular target: human ferroportin (SLC40A1) fused in frame with the GFP protein (human) (UniProt Q9NP59); assay: cell-based or functional assay
[2] = molecular target: T1, ferroportin (Homo sapiens, UniProt Q9NP59); assay: FPN activity assay: ferroportin-GFP internalization/degradation in HEK293 cells; format: cell-based; parameters: expressed in transfected cells; settings: read-out: FPN IC50
T1 sequence (Q9NP59 1-571): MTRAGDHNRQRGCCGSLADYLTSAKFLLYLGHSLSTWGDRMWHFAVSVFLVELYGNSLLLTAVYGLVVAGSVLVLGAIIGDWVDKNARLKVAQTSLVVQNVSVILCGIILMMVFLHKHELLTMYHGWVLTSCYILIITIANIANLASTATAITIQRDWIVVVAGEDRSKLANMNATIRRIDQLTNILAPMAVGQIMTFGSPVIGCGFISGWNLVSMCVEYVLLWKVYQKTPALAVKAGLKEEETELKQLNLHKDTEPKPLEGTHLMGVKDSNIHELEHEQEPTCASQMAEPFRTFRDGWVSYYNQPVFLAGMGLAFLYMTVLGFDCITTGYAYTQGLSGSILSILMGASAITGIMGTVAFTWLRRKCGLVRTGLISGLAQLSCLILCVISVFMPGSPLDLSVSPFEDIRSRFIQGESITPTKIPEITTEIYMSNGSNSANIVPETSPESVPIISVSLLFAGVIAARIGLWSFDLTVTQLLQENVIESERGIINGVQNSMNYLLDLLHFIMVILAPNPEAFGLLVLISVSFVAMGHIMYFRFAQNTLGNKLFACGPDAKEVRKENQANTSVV
Experimental: Following internalization, the ferroporin protein is degraded.
A retro inverse peptide is a peptide with a reversed sequence in all D amino acids. An example is that Hy-Glu-Thr-His-NH2 becomes Hy-DHis-DThr-DGlu-NH2. The EC50 of these reference compounds for ferroportin internalization/degradation was determined according to the FPN activity assay described above. These peptides served as control standards.

[3] = molecular target: T1, ferroportin; assay: T47D cell-based ferroportin internalization assay in presence of mouse serum albumin (MSA); parameters: a human breast carcinoma adherent cell line which endogenously expresses ferroportin; host or cells: T47D
How it was run: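 Peptide potency for inducing ferroportin internalization was measured in T47D cells in the presence of serum albumin. Cells grown in RPMI with fetal bovine serum were seeded in 96-well plates at 80-100 k cells per well in 100 ul and rested overnight. Dilution series of test peptides were preincubated 30 min at room temperature, then added to the cells after the medium was aspirated.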

[4] = ferroportin-GFP internalization/degradation, HEK293 cells, Table 6E
[5] = T47D internalization assay in presence of mouse serum albumin (MSA), Table 6E
[6] = ferroportin-GFP HEK293 cells, at least 18 hours
[7] = T47D cells, 0.5% mouse serum albumin, 1 hr incubation

DC50 [2, 4] | IC50 [3, 5] | Compound | other results
10 to 100 nM | 10 to 100 nM | CC(C)CC(=O)N[C@@H](CCC(=O)O)C(=O)N[C@H](C(=O)N[C@@H](Cc1c[nH]cn1)C(=O)N[C@H](C(=O)N1CCC[C@H]1C(=O)N[C@H]1CSSC[C@@H](C(=O)N(C)[C@@H](CCCCNC(=O)COCCOCCNC(=O)COCCOCCNC(=O)[C@H](CN)NC(=O)CCCCCCCCCCCCCCCCC(=O)O)C(=O)N[C@H](CC(=O)N[C@H](CCCCN)C(N)=O)Cc2ccccc2)NC1=O)C(c1ccccc1)c1ccccc1)[C@@H](C)O [compound 306] (Isovaleryl-ETH[Dip]PCC[NMeK]([AEEA-AEEA-Dap-C18 diacid])[β3hF][dK]-NH2; disulfide 6-7) | –
10 to 100 nM | 10 to 100 nM | CC(C)CC(=O)N[C@@H](CCC(=O)O)C(=O)N[C@H](C(=O)N[C@@H](Cc1c[nH]cn1)C(=O)N[C@H](C(=O)N1CCC[C@H]1C(=O)N[C@H]1CSSCC[C@@H](C(=O)N(C)[C@@H](CCCCNC(=O)COCCOCCNC(=O)COCCOCCNC(=O)[C@H](CN)NC(=O)CCCCCCCCCCCCCCCCC(=O)O)C(=O)N[C@H](CC(=O)N[C@H](CCCCN)C(N)=O)Cc2ccccc2)NC1=O)C(c1ccccc1)c1ccccc1)[C@@H](C)O [compound 270] (Isovaleryl-ETH[Dip]PC[hCys][NMeK]([AEEA-AEEA-Dap-C18 diacid])[β3hF][dK]-NH2; disulfide 6-7) | –
10 to 100 nM | 10 to 100 nM | C[C@@H](O)[C@H](NC(=O)[C@H](CCC(=O)O)NC(=O)Cc1ccc(F)cc1)C(=O)N[C@@H](Cc1c[nH]cn1)C(=O)N[C@H](C(=O)N1CCC[C@H]1C(=O)N[C@H]1CSSC[C@@H](C(=O)N(C)[C@@H](CCCCNC(=O)COCCOCCNC(=O)COCCOCCNC(=O)[C@H](CN)NC(=O)CCCCCCCCCCCCCCCCC(=O)O)C(=O)N[C@H](CC(=O)N[C@H](CCCCN)C(N)=O)Cc2ccccc2)NC1=O)C(c1ccccc1)c1ccccc1 [compound 298] ({Phenylacetyl(4-F)}-ETH[Dip]PCC[NMeK]([AEEA-AEEA-Dap-C18 diacid])[β3hF][dK]-NH2; disulfide 6-7) | –
10 to 100 nM | 1 to 10 nM | CCCCCCCCCCCCCCCC(=O)NCCCCCC(=O)NCCCC[C@@H](C(=O)N[C@H](CC(=O)N[C@H](CCCCN)C(N)=O)Cc1ccccc1)N(C)C(=O)[C@@H]1CSSC[C@H](NC(=O)[C@@H]2CCCN2C(=O)[C@@H](NC(=O)[C@H](Cc2cnc[nH]2)NC(=O)[C@@H](NC(=O)[C@H](CCC(=O)O)NC(=O)CC(C)C)[C@@H](C)O)C(c2ccccc2)c2ccccc2)C(=O)N1 [compound 308] (Isovaleryl-ETH[Dip]PCC[NMeK]([Ahx-Palmitoyl])[β3hF][dK]-NH2; disulfide 6-7) | –
100 to 500 nM | 100 to 500 nM | C[C@@H](O)[C@H](NC(=O)[C@H](CCC(=O)O)NC(=O)C1CCNCC1)C(=O)N[C@@H](Cc1c[nH]cn1)C(=O)N[C@H](C(=O)N1CCC[C@H]1C(=O)N[C@H]1CSSC[C@@H](C(=O)N(C)[C@@H](CCCCNC(=O)COCCOCCNC(=O)COCCOCCNC(=O)[C@H](CN)NC(=O)CCCCCCCCCCCCCCCCC(=O)O)C(=O)N[C@H](CC(=O)N[C@H](CCCCN)C(N)=O)Cc2ccccc2)NC1=O)C(c1ccccc1)c1ccccc1 [compound 300] (H-[Inp]ETH[Dip]PCC[NMeK]([AEEA-AEEA-Dap-C18 diacid])[β3hF][dK]-NH2; disulfide 7-8) | –

The next lines start with the compound.

Compound | DC50 [2, 4] | IC50 [3, 5] | other results
Hepcidin (ligand) | – | – | Potency EC50 [1]: 34 nM
CCCCCCCCCCCCCCCC(=O)NCCCSCC[C@H](NC(=O)[C@@H]1CSSC[C@H](NC(=O)[C@@H]2CCCN2C(=O)[C@@H](NC(=O)[C@H](Cc2cnc[nH]2)NC(=O)[C@@H](NC(=O)[C@H](CCC(=O)O)NC(=O)CC(C)C)[C@@H](C)O)C(c2ccccc2)c2ccccc2)C(=O)N1)C(=O)N[C@H](C(=O)N[C@H](CCCCN)C(N)=O)C(c1ccccc1)c1ccccc1 [compound 162] (Isovaleryl-ETH[Dip]PCC[hCys](X3)[Dip][dK]-NH2; disulfide 6-7) | – | – | DC50 ([2]; Table 6E, ferroportin-GFP internalization/degradation, at least 18 hours incubation): 10 to 100 nM; IC50 ([3]; Table 6E, T47D internalization assay with MSA): 1 to 10 nM
CC[C@H](C)[C@@H]1NC(=O)[C@@H](NC(=O)[C@@H]2CCCN2C(=O)[C@@H](NC(=O)[C@H](Cc2c[nH]cn2)NC(=O)[C@@H](NC(=O)[C@H](CCC(=O)O)NC(=O)CC(C)C)[C@@H](C)O)C(c2ccccc2)c2ccccc2)CSSC[C@@H](C(=O)N[C@H](CC(=O)N[C@@H](CCCCNC(=O)COCCOCCNC(=O)COCCOCCNC(=O)CC[C@H](NC(=O)CCCCCCCCCCCCCCCCC(=O)O)C(=O)O)C(=O)N[C@H](CCCCN)C(N)=O)Cc2ccccc2)NC1=O [Compd 36] (Isovaleryl-ETH[Dip]PCIC[β3hF]K([AEEA-AEEA-γGlu-C18 diacid])[dK]-NH2; disulfide 6-8) | – | – | DC50 [2, 6]: 10 to 100 nM; IC50 [3, 7]: 10 to 100 nM
CC(C)CC(=O)N[C@@H](CCC(=O)O)C(=O)N[C@H](C(=O)N[C@@H](Cc1c[nH]cn1)C(=O)N[C@H](C(=O)N1CCC[C@H]1C(=O)N[C@H]1CSSC[C@@H](C(=O)N(C)[C@@H](CCCCNC(=O)COCCOCCNC(=O)COCCOCCNC(=O)[C@H](CN)NC(=O)CCCCCCCCCCCCCCCCC(=O)O)C(=O)N[C@H](CC(=O)N[C@H](CCCCN)C(=O)N(C)[C@@H](CO)C(N)=O)Cc2ccccc2)NC1=O)C(c1ccccc1)c1ccccc1)[C@@H](C)O [compound 260] (Isovaleryl-ETH[Dip]PCC[NMeK]([AEEA-AEEA-Dap-C18 diacid])[β3hF][dK][NMeS]-NH2; disulfide 6-7) | 10 to 100 nM | 10 to 100 nM | –
CCCCCCCCCCCCCCCC(=O)NCCCCCC(=O)NCCCC[C@H](NC(=O)C[C@H](Cc1ccccc1)NC(=O)[C@@H](CCCCN)NC(=O)[C@@H](NC(=O)[C@H](C)NC(=O)[C@@H]1CSSC[C@H](NC(=O)[C@H](CCC(=O)O)NC(=O)CC(C)C)C(=O)N[C@@H](Cc2c[nH]cn2)C(=O)N[C@@H](C(c2ccccc2)c2ccccc2)C(=O)N1)[C@@H](C)CC)C(=O)N[C@H](CCCCN)C(=O)N[C@@H](C)C(N)=O [Compd 45] (Isovaleryl-ECH[Dip]CAI[dK][β3hF]K([Ahx-Palmitoyl])[dK]A-NH2; disulfide 2-5) | – | – | DC50 [2, 6]: 10 to 100 nM; IC50 [3, 7]: 1 to 10 nM
